{
  "source": "patent US7709494B2",
  "about": "“4,5-diphenyl-pyrimidinyl-oxy or -mercapto substituted carboxylic acids, method for the production and use thereof as medicaments” (Sanofi-Aventis, priority 2006, dated 2010)",
  "biological_target": "T1, GPCR GPR40 (Homo sapiens, UniProt O14842)",
  "T1 construct": "expressed in transfected cells; host or cells: HEK293",
  "T1 sequence (O14842 whole entry)": "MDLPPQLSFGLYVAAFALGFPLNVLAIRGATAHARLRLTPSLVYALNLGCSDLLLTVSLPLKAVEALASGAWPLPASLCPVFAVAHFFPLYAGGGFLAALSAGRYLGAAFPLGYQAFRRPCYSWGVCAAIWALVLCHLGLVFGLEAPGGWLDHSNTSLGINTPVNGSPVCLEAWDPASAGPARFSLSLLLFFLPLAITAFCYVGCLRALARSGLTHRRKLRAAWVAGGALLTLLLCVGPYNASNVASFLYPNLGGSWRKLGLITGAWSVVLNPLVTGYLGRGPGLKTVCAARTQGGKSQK",
  "assay": "In vitro FLIPR assay with recombinant cells which express the GPCR GPR40 (agonist-induced intracellular Ca2+ change)",
  "assay_type": "cell-based",
  "conditions": "recombinant HEK293 cells expressing GPR40; 100 μM test substance; percentage change relative to control (0%: no test substance; 100%: 10 μM reference agonist linoleic acid)",
  "procedure": "In vitro FLIPR assay with recombinant cells which express the GPCR GPR40\nFunction-testing assays were carried out by means of the FLIPR technique (“Fluorescence Imaging Plate Reader”, Molecular Devices Corp.). For this purpose, agonist-induced changes in the intracellular concentration of Ca^2+ in recombinant HEK293 cells which expressed the GPCR. GPR40 were determined.\nFor the investigations, cells were seeded in 96-well microtiter plates (60 000 cells/well) and allowed to grow overnight. The medium was removed and the cells were incubated in buffer which contained the fluorescent dye fluo-4. After this loading with dye, the cells were washed, test substance was added, and changes in the intracellular Ca^2+ concentration were measured in the FLIPR instrument. Results have been presented as percentage change relative to the control (0%: no test substance added; 100%: 10 μM reference agonist linoleic acid added).",
  "data": [
    {"compound": "cis-(4,5-Diphenylpyrimidin-2-yloxymethyl)cyclohexanecarboxylic acid [Example 2]", "values": [
      {"measurement": "% activation @ 100 μM", "value": 91, "unit": "%"}
    ]},
    {"compound": "O=C(O)[C@H]1CCC[C@@H](COc2ncc(-c3ccccc3)c(-c3ccccc3)n2)C1", "note": "[Example 1, (1S,3R)-3-(4,5-Diphenylpyrimidin-2-yloxymethyl)cyclohexanecarboxylic acid]", "values": [
      {"measurement": "% activation @ 100 μM", "value": 74, "unit": "%"}
    ]},
    {"compound": "O=C(O)C1CCC(COc2ncc(-c3ccccc3)c(-c3ccccc3)n2)CC1", "note": "(mixture of isomers) [Example 4, Cis/trans-4-(4,5-diphenylpyrimidin-2-yloxymethyl)cyclohexanecarboxylic cid]", "values": [
      {"measurement": "% activation @ 100 μM", "value": 96, "unit": "%"}
    ]},
    {"compound": "O=C(O)C1CC1CCCCCSc1ncc(-c2ccccc2)c(-c2ccccc2)n1", "note": "(stereo not drawn) [Example 7, 2-[5-(4,5-Diphenylpyrimidin-2-ylsulfanyl)pentyl]cyclopropanecarboxylic acid]", "values": [
      {"measurement": "% activation @ 100 μM", "value": 101, "unit": "%"}
    ]},
    {"compound": "CCC(CCC1CC1C(=O)O)Oc1ncc(-c2ccccc2)c(-c2ccccc2)n1", "note": "(stereo not drawn) [Example 10, 2-[3-(4,5-Diphenylpyrimidin-2-yloxy)pentyl]cyclopropanecarboxylic acid]", "values": [
      {"measurement": "% activation @ 100 μM", "value": 5, "unit": "%"}
    ]},
    {"compound": "O=C(O)[C@H]1CC[C@@H](COc2ncc(-c3ccccc3)c(-c3ccccc3)n2)C1", "note": "(relative stereo) [Example 3, cis-3-(4,5-Diphenylpyrimidin-2-yloxymethyl)cyclopentanecarboxylic acid]", "values": [
      {"measurement": "% activation @ 100 μM", "value": 76, "unit": "%"}
    ]},
    {"compound": "O=C(O)C1CC1CCCCOc1ncc(-c2ccccc2)c(-c2ccccc2)n1", "note": "(stereo not drawn) [Example 9, 2-[4-(4,5-Diphenylpyrimidin-2-yloxy)butyl]cyclopropanecarboxylic acid]", "values": [
      {"measurement": "% activation @ 100 μM", "value": 101, "unit": "%"}
    ]},
    {"compound": "O=C(O)CC12CC3CC(C1)CC(Sc1ncc(-c4ccccc4)c(-c4ccccc4)n1)(C3)C2", "note": "[Example 5, [3-(4,5-Diphenylpyriidin-2-ylsulfanyl)adamantan-1-yl]acetic acid]", "values": [
      {"measurement": "% activation @ 100 μM", "value": 64, "unit": "%"}
    ]},
    {"compound": "O=C(O)[C@H]1CCCC(Oc2ncc(-c3ccccc3)c(-c3ccccc3)n2)C1", "note": "(stereo partly drawn) [Example 6, (1S)-3-(4,5-Diphenylpyrimidin-2-yloxy)cyclohexanecarboxylic acid]", "values": [
      {"measurement": "% activation @ 100 μM", "value": 66, "unit": "%"}
    ]}
  ]
}
